We go through seven molecules from US12178875B2, “Lymphatic system-directing lipid prodrugs” (Seaport Therapeutics, Inc., priority 2017, dated 2024).

Series [1] can be described thus: Lymphatic transport assay in mesenteric lymph-duct cannulated rats. It is filed as in vivo, rat. To be noted: total MPA related compound, intraduodenal infusion, anaesthetised mesenteric lymph-duct cannulated rats; class symbols. As for the experimental part:
In order to assess the lymphatic transport of disclosed lipid prodrugs in rats, the mesenteric lymph ducts of the rats used in this study were cannulated to allow continual collection of mesenteric lymph. Lipid formulations containing the compound of interest were then administered to the animals, lymph was collected, and drug concentrations in the lymph samples were quantified.
Lipid-based formulations of the compounds of the invention or control compounds were prepared as previously described (Trevaskis, N. L. et al., Pharmaceutical Research, 2005, 22(11), 1863-1870, WO 2016/023082, and WO 2017/041139, hereby incorporated by reference.
In brief, either 1 or 2 mg of test prodrug, 40 mg oleic acid and 25 mg Tween 80 were mixed in a glass vial and incubated at 37° C. for 12-18 h to equilibrate. An aqueous phase consisting of 5.6 ml phosphate buffered saline (PBS, pH 7.4) was subsequently added to the lipid phase (MPA was dissolved in PBS for the preparation of MPA containing formulations) and the formulation emulsified by ultrasonication with a Misonix XL 2020 ultrasonic processor (Misonix, Farmingdale, NY, USA) equipped with a 3.2-mm microprobe tip running at 30% of the maximal amplitude of […] and a frequency of 20 kHz for 2 min at room temperature. Doses for administering to more than one animal can be prepared in one batch by suitably increasing the quantities given above. Drug/prodrug concentrations in all formulations were verified using HPLC-MS.
Male Sprague-Dawley (SD) rats were selected for the lymphatic transport studies involving mycophenolic acid lipid prodrugs. Depending on the therapeutic agent, male, female, or both may be selected for study. Rats (typically 240-320 g) were maintained on a standard diet and fasted overnight with free access to water prior to experiments.
Anesthetized rats were placed on a heated pad at 37° C. and cannulas inserted into the duodenum (for formulation administration and rehydration), mesenteric lymph duct (for lymph collection), and carotid artery (in cases where blood collection was conducted). Post-surgery, rats were re-hydrated for 0.5 h via intraduodenal infusion of normal saline at 2.8 mL/h. […] The collection tubes were changed hourly and lymph flow was measured gravimetrically. […]
Drug concentration in lymph is expressed as total drug and includes free drug and drug associated with different glycerides. […]
Transport of compounds into lymph during each hourly collection period was calculated from the product of the volume of lymph collected and the measured concentrations in lymph. For fluorescently-labelled compounds such as a BDP-conjugate, the concentrations of total compound may be measured by fluorescence spectroscopy without hydrolysis. […]

The nature of series [2]: In vitro release of therapeutic agent from prodrugs in plasma supplemented with lipoprotein lipase. It is filed as in vitro ADME, rat. The protocol:
The percentage of MPA released at 60 minutes in LPL-supplemented rat plasma was also determined for selected compounds. […] The designation “**” indicates a release % of >25% to 50%. The designation “***” indicates a release % of >50% to 75%. The designation “****” indicates a release % of >75%.
In order to probe the release of free drug from TG prodrugs in the systemic circulation, prodrugs were incubated with plasma (rat, mouse, dog, pig or human) supplemented with lipoprotein lipase (LPL, 200 IU/ml). LPL is a key enzyme required for the hydrolysis of lipoprotein associated TG in the systemic circulation and is therefore expected to be a key contributor to lipolysis of the re-esterified drug-TG construct in plasma, largely via liberation of fatty acids in the sn-1 and the sn-3 position of the TG-mimetic, prior to drug release from the 2′ position via esterase hydrolysis. LPL is […] is tethered to the luminal surface of vascular endothelial cells under physiological conditions. In the current in vitro studies, plasma was therefore supplemented with LPL to better reflect the in vivo situation. To start hydrolysis, 10 μl of LPL solution (10,000 IU/ml) was added to a mixture of 10 μl of prodrug solution (1 mg/ml dissolved in acetonitrile) and 500 μl of blank plasma. The mixture was incubated at 37° C. Samples (20 μl) of the incubation solution were taken at 0, 5, 15, 30, 60, 90, 120 and 180 minutes post-incubation and added to 180 μl of MeCN to stop lipolysis. The mixture was vortexed and centrifuged at 4500×g for 5 minutes to precipitate proteins prior to analysis. The supernatant was analyzed by HPLC-MS/MS for the potential products (MG form, acid form, and free drug) of prodrug hydrolysis.
To assess the stability and release profile of compounds of the present invention, compounds TAC-I-18 and TAC-I-20 were incubated with rat plasma and the concentrations of compounds, parent drug tacrolimus, and acid were monitored by LCMS for about three hours.

For series [3] the following is noted: mice, oral, multiple dose study: 2 times daily for 2 days, samples on the 3rd day (FIG. 8A/8B). The protocol: This experiment included a single and multiple dose study. In the multiple dose study, dosing of either free MPA or MPA-2-TG (MPA-I-34, structure below) 2 times daily was performed for 2 days followed by collecting samples from mesenteric or peripheral lymph nodes on the 3rd day after dosing.
The concentrations of free MPA were measured for both groups of mice.

The mark [4] stands for this setting: rat plasma supplemented with LPL, 180 min (FIG. 9, FIG. 10).

On to `CCCCCCCCCCCCCCCC(=O)OCC(COC(=O)CCCCCCCCCCCCCCC)OC(=O)CCCCCC(=O)Oc1c(C/C=C(\C)CCC(=O)OC)c(OC)c(C)c2c1C(=O)OC2` [MPA-I-19], for which the “Cumulative lymphatic transport % dose (Mean ± SD, or Range if n = 2)” value in series [1] is reported as “A (greater than 10% (>10%))”. In series [2] (60 min, n = 3 unless specified otherwise), the “Percentage MPA release at 60 min in LPL supplemented rat plasma” value was “**** (a release % of >75%)”. With `CCCCCCCCCCCCCCCC(=O)OCC(COC(=O)CCCCCCCCCCCCCCC)OC(=O)CC/C(C)=C/Cc1c(O)c2c(c(C)c1OC)COC2=O` [MPA-TG], the “concentrations of free MPA in mesenteric lymph nodes compared with MPA” value in series [3] is “Much higher concentrations”.

In the case of `CCCCCCCCCCCCCCCC(=O)OCC(COC(=O)CCCCCCCCCCCCCCC)OC(=O)CC(C)COC(=O)CC/C(C)=C/Cc1c(O)c2c(c(C)c1OC)COC2=O` (stereo not drawn) [MPA-I-50], the “Cumulative lymphatic transport % dose (Mean ± SD, or Range if n = 2)” value in series [1] is listed as “A (greater than 10% (>10%))”. Turning to `CCCCCCCCCCCCCCCC(=O)OCC(COP(=O)([O-])OCC[N+](C)(C)C)OC(=O)CC/C(C)=C/Cc1c(O)c2c(c(C)c1OC)COC2=O` (stereo not drawn) [MPA-I-39], the “Cumulative lymphatic transport % dose (Mean ± SD, or Range if n = 2)” value in series [1] was “C (less than 1% and greater than 0.24% (<1% and >0.24%))”. The same measure, in the same setting: the result for `CCCCCCCCCCCCCCCC(=O)OCC(COC(=O)CCCCCCCCCCCCCCC)OC(=O)COC(=O)CC/C(C)=C/Cc1c(O)c2c(c(C)c1OC)COC2=O` [MPA-I-46] reads “A (greater than 10% (>10%))”. With `CCCCCCCCCCCCCCCC(=O)OCC(COC(=O)CCCCCCCCCCCCCCC)OC(=O)CC(C)CCCCCCCC(C)C(=O)Oc1c(C/C=C(\C)CCC(=O)OC)c(OC)c(C)c2c1C(=O)OC2` (stereo not drawn) [MPA-I-20], in series [2] (setting [4]), the “monoglyceride (MG) peak after 180 min” value is reported as “almost completely disappeared”.

As for `CCCCCCCCCCCCCCCC(=O)OCC(COC(=O)CCCCCCCCCCCCCCC)OC(=O)CC(C)CCCCCCCC(C)C(=O)OCCCCC(=O)Oc1c(C/C=C(\C)CCC(=O)OC)c(OC)c(C)c2c1C(=O)OC2` (stereo not drawn) [MPA-I-22, (E)-12-(1,3-Bis(palmitoyloxy)propan-2-yl) 1-(5-((6-methoxy-5-(6-methoxy-3-methyl-6-oxohex-2-en-1-yl)-7-methyl-3-oxo-1,3-dihydroisobenzofuran-4-yl)oxy)-5-oxopentyl) 2,10-dimethyldodecanedioate], in series [2] (setting [4]), the “MPA released after 180 min” value was “about 80%” and the “monoglyceride (MG) peak after 180 min” value is listed as “almost completely disappeared”.
